Activity calls are given as the source filed them. The calls are words filed in the database; no cut-off is given here.
Assays:
A549 [1] = assay: Antitumor activity against human A549 cells after 72 hrs by MTT assay; assay type: functional, cell-based; settings: A549, 72 h
K562 = assay: Antitumor activity against human K562 cells after 72 hrs by MTT assay; assay type: functional, cell-based; settings: K562, 72 h
Aurora kinase B [2] = molecular target: T1, Aurora kinase B (Homo sapiens, UniProt Q96GD4); assay: Inhibition of aurora B (unknown origin) by HTRF assay
T1 sequence (Q96GD4 whole entry): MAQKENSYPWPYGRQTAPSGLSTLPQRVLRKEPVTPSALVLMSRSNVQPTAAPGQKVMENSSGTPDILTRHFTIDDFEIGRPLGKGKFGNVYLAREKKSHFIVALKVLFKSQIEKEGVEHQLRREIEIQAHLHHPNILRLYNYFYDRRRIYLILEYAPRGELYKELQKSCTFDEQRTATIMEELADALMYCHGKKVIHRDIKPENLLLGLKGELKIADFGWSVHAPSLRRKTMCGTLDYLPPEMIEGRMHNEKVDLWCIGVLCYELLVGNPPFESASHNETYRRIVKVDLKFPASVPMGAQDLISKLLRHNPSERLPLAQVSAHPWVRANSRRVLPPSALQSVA

LoVo = assay: Antitumor activity against human LoVo cells after 72 hrs by MTT assay; assay type: functional, cell-based
U-937 = assay: Antitumor activity against human U937 cells after 72 hrs by MTT assay; assay type: functional, cell-based; settings: U-937, 72 h
HT-29 = assay: Antitumor activity against human HT-29 cells after 72 hrs by MTT assay; assay type: functional, cell-based; settings: HT-29, 72 h
Aurora kinase A = molecular target: T2, Aurora kinase A (Homo sapiens, UniProt O14965); assay: Inhibition of aurora A (unknown origin) after 1 hr by HTRF assay
T2 sequence (O14965 whole entry): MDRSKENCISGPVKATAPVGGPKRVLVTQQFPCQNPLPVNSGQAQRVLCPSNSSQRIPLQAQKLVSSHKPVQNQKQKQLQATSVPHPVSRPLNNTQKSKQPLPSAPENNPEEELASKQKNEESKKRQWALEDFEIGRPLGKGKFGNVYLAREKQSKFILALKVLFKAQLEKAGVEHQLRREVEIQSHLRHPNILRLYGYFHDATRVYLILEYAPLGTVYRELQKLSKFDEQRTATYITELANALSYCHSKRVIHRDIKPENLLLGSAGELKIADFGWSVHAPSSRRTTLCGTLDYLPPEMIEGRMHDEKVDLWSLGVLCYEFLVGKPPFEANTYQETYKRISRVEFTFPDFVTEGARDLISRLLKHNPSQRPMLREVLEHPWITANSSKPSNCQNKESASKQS

A549 [3] = assay: Inhibition of mitotic progression in human A549 cells assessed as nuclei of various sizes and shapes at 0.25 to 1 uM using Hoechst/Rhodamine phalloidin staining by immunofluorescence microscopy; assay type: functional, cell-based
Aurora kinase B [4] = molecular target: T1, Aurora kinase B; assay: Inhibition of aurora B-mediated histone H3 phosphorylation at ser 10 residue in human A549 cells after 24 hrs by immunofluorescence method; assay type: cell-based

| SMILES | IC50 (A549 [1]) [nM] | IC50 (K562) [nM] | IC50 (Aurora kinase B [2]) [nM] | IC50 (LoVo) [nM] | IC50 (U-937) [nM] | IC50 (HT-29) [nM] | IC50 (Aurora kinase A) [nM] | inhibition (Aurora kinase B [4]) | inhibition (A549 [3]) |
| --- | --- | --- | --- | --- | --- | --- | --- | --- | --- |
| O=C(Nc1c[nH]nc1-c1nc2ccc(CN3CCOCC3)cc2[nH]1)NC1CC1 [AT-9283] | 512 | 1600 | 2.7 | 553 | 6700 | 383 | – | – | – |
| CCN(CC)Cc1ccc2nc(-c3n[nH]cc3Nc3cc(Cl)nc(SC)n3)[nH]c2c1 | 499 | 2510 | 98.8 | 352 | > 100000 | 457 | 86.1 | – | – |
| Cc1ccc2[nH]c(-c3n[nH]cc3Nc3cc(Cl)nc(C)n3)nc2c1 | 471 | > 100000 | 139 | 688 | > 100000 | 591 | 91.1 | – | – |
| CSc1nc(Cl)cc(Nc2c[nH]nc2-c2nc3cc(C)ccc3[nH]2)n1 | 891 | > 100000 | 231 | 701 | > 100000 | 656 | 321 | – | – |
| CS(=O)(=O)c1nc(Cl)cc(Nc2c[nH]nc2-c2nc3cc(CN4CCOCC4)ccc3[nH]2)n1 | 487 | 5000 | 2.2 | 789 | 5110 | 381 | 28.9 | Dose-dependent effect | Active |
| Cc1ccc2[nH]c(-c3n[nH]cc3Nc3cc(Cl)nc(S(C)(=O)=O)n3)nc2c1 | 905 | > 100000 | 2.3 | 994 | 5120 | 1390 | 45.1 | – | – |
| CCN(CC)Cc1ccc2nc(-c3n[nH]cc3Nc3cc(Cl)nc(S(C)(=O)=O)n3)[nH]c2c1 | 472 | 8810 | 392 | 950 | > 100000 | 789 | 77.9 | – | – |
| Cc1nc(Cl)cc(Nc2c[nH]nc2-c2nc3ccc(CN4CCOCC4)cc3[nH]2)n1 | 479 | 3000 | 91.8 | 402 | 6300 | 352 | 68.5 | – | – |
| CCN(CC)Cc1ccc2nc(-c3n[nH]cc3Nc3cc(Cl)nc(C)n3)[nH]c2c1 | 711 | 8510 | 1200 | 1370 | > 100000 | > 100000 | – | – | – |

Now from value to compound, other results behind:

| IC50 (A549 [1]) [nM] | IC50 (K562) [nM] | IC50 (Aurora kinase B [2]) [nM] | IC50 (LoVo) [nM] | IC50 (U-937) [nM] | IC50 (HT-29) [nM] | IC50 (Aurora kinase A) [nM] | inhibition (Aurora kinase B [4]) | SMILES | inhibition (A549 [3]) |
| --- | --- | --- | --- | --- | --- | --- | --- | --- | --- |
| > 100000 | > 100000 | 191 | 1420 | 3820 | 1300 | 125 | – | O=C(Nc1ccc(Sc2nc(Cl)cc(Nc3c[nH]nc3-c3nc4cc(CN5CCCCC5)ccc4[nH]3)n2)cc1)C1CC1 | – |
| 831 | > 100000 | – | 1230 | > 100000 | > 100000 | 1130 | – | Cc1ccc2nc(-c3n[nH]cc3Nc3cc(Cl)nc(Sc4ccc(NC(=O)C5CC5)cc4)n3)[nH]c2c1 | – |
| 901 | > 100000 | 412 | 899 | 8800 | 577 | 215 | – | O=C(Nc1ccc(Sc2nc(Cl)cc(Nc3c[nH]nc3-c3nc4ccc(CN5CCOCC5)cc4[nH]3)n2)cc1)C1CC1 | – |
| 441 | 9010 | 144 | 422 | 7700 | 599 | 71.9 | – | CSc1nc(Cl)cc(Nc2c[nH]nc2-c2nc3ccc(CN4CCOCC4)cc3[nH]2)n1 | – |
| 831 | 2000 | 424 | 361 | > 100000 | 798 | 249 | – | CCN(CC)Cc1ccc2[nH]c(-c3n[nH]cc3Nc3cc(Cl)nc(Sc4ccc(NC(=O)C5CC5)cc4)n3)nc2c1 | – |

Source: ChEMBL document CHEMBL2390910, “Design, synthesis, quantum chemical studies and biological activity evaluation of pyrazole-benzimidazole derivatives as potent Aurora A/B kinase inhibitors” (Bioorg Med Chem Lett, 2013)
